According to US6914045B2, “Glycopeptide antibiotics” (Wyeth Holdings Corporation, priority 2001, dated 2005):
Converted amounts (≈) assume the structure as drawn.

Experiments:
Assay in all cases: in vitro antibacterial evaluation, MIC by broth dilution
Format in all cases: cell-based
[1] = system: Escherichia coli; details: 18 hours at 35° C.
[2] = system: Staphylococcus sp.; details: broth dilution, 18 hours at 35° C.; for MIC Staphylococcus aureus (GC 1131): strain GC 1131
Summary of the method: (§1)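 MIC, the lowest antibiotic concentration preventing growth, was read across 64-0.06 μg/mL with 5×10^5 CFU/mL inoculum. Method followed NCCLS M7-A2 broth dilution using Mueller-Hinton II; Gram-positive strains covered recent methicillin-, penicillin- and/or vancomycin-resistant clinical isolates.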

[3] = system: Streptococcus sp.; details: broth dilution, 18 hours at 35° C.
Summary of the method: as §1

[4] = system: Enterococcus sp.; details: broth dilution, 18 hours at 35° C.
Summary of the method: as §1

MIC Escherichia coli (ATCC 25922) [1]: 32 µg/mL (≈ 23 µM)
MIC Escherichia coli (GC 4559) [1]: 32 µg/mL (≈ 23 µM)
MIC Escherichia coli (GC 4560) [1]: 1 µg/mL (≈ 0.72 µM)
MIC Staphylococcus aureus (GC 1131) ([2]; inoculum 5×10^5 CFU/mL): 2 µg/mL (≈ 1.44 µM)
MIC Staphylococcus aureus (ATCC 29213) ([2]; strain ATCC 29213): 1 µg/mL (≈ 0.72 µM)
MIC Staphylococcus aureus (GC 1131) [2]: 2 µg/mL (≈ 1.44 µM)
MIC Staphylococcus aureus (GC 3051) ([2]; strain GC 3051): 1 µg/mL (≈ 0.72 µM)
MIC Staphylococcus aureus (GC 3053) ([2]; strain GC 3053): 2 µg/mL (≈ 1.44 µM)
MIC Staphylococcus aureus (GC 4541) ([2]; strain GC 4541): 1 µg/mL (≈ 0.72 µM)
MIC Staphylococcus aureus (GC 4542) ([2]; strain GC 4542): 1 µg/mL (≈ 0.72 µM)
MIC Staphylococcus aureus-SMITH (GC 4543) ([2]; strain GC 4543): 1 µg/mL (≈ 0.72 µM)
MIC Staphylococcus aureus (GC 4544) ([2]; strain GC 4544): 2 µg/mL (≈ 1.44 µM)
MIC Staphylococcus aureus (GC 4545) ([2]; strain GC 4545): 1 µg/mL (≈ 0.72 µM)
MIC Coagulase Negative Staphylococcus (GC 4547) ([2]; strain GC 4547): 2 µg/mL (≈ 1.44 µM)
MIC Coagulase Negative Staphylococcus (GC 4548) ([2]; strain GC 4548): 1 µg/mL (≈ 0.72 µM)
MIC Coagulase Negative Staphylococcus (GC 4549) ([2]; strain GC 4549): 1 µg/mL (≈ 0.72 µM)
MIC Coagulase Negative Staphylococcus (GC 4551) ([2]; strain GC 4551): 2 µg/mL (≈ 1.44 µM)
MIC Streptococcus agalactiae (GC 4564) [3]: 0.12 µg/mL (≈ 0.0864 µM)
MIC Streptococcus pneumoniae (ATCC 6301) [3]: <0.06 µg/mL
MIC Streptococcus pneumoniae (GC 1894) [3]: <0.06 µg/mL
MIC Streptococcus pneumoniae (GC 4565) [3]: <0.06 µg/mL
MIC Streptococcus pyogenes (GC 4563) [3]: <0.06 µg/mL
MIC Streptococcus pneumoniae (ATCC 6301) ([3]; inoculum 5×10^5 CFU/mL, strain ATCC 6301): <0.06 µg/mL
MIC Streptococcus pneumoniae (GC 1894) ([3]; inoculum 5×10^5 CFU/mL, strain GC 1894): <0.06 µg/mL
MIC Streptococcus pyogenes (GC 4563) ([3]; inoculum 5×10^5 CFU/mL, strain GC 4563): <0.06 µg/mL
MIC Streptococcus agalactiae (GC 4564) ([3]; inoculum 5×10^5 CFU/mL, strain GC 4564): 0.12 µg/mL (≈ 0.0864 µM)
MIC Streptococcus pneumoniae (GC 4565) ([3]; inoculum 5×10^5 CFU/mL, strain GC 4565): <0.06 µg/mL
MIC Enterococcus avium (GC 4558) [4]: 4 µg/mL (≈ 2.88 µM)
MIC Enterococcus faecalis (ATCC 29212) [4]: 4 µg/mL (≈ 2.88 µM)
MIC Enterococcus faecalis (GC 2242) [4]: 0.5 µg/mL (≈ 0.36 µM)
MIC Enterococcus faecalis (GC 2691) [4]: 4 µg/mL (≈ 2.88 µM)
MIC Enterococcus faecalis (GC 3059) [4]: 2 µg/mL (≈ 1.44 µM)
MIC Enterococcus faecalis (GC 4552) [4]: 2 µg/mL (≈ 1.44 µM)
MIC Enterococcus faecalis (GC 4553) [4]: 4 µg/mL (≈ 2.88 µM)
MIC Enterococcus faecalis (GC 4554) [4]: 4 µg/mL (≈ 2.88 µM)
MIC Enterococcus faecalis (GC 6189) [4]: 2 µg/mL (≈ 1.44 µM)
MIC Enterococcus faecium (GC 2243) [4]: 4 µg/mL (≈ 2.88 µM)
MIC Enterococcus faecium (GC 4556) [4]: 4 µg/mL (≈ 2.88 µM)
MIC Enterococcus faecium (GC 4557) [4]: 2 µg/mL (≈ 1.44 µM)
MIC Enterococcus faecalis (ATCC 29212) ([4]; inoculum 5×10^5 CFU/mL, strain ATCC 29212): 4 µg/mL (≈ 2.88 µM)
MIC Enterococcus faecalis (GC 2242) ([4]; inoculum 5×10^5 CFU/mL, strain GC 2242): 0.5 µg/mL (≈ 0.36 µM)
MIC Enterococcus faecium (GC 2243) ([4]; inoculum 5×10^5 CFU/mL, strain GC 2243): 4 µg/mL (≈ 2.88 µM)
MIC Enterococcus faecalis (GC 2691) ([4]; inoculum 5×10^5 CFU/mL, strain GC 2691): 4 µg/mL (≈ 2.88 µM)
MIC Enterococcus faecalis (GC 3059) ([4]; inoculum 5×10^5 CFU/mL, strain GC 3059): 2 µg/mL (≈ 1.44 µM)
MIC Enterococcus faecalis (GC 4552) ([4]; inoculum 5×10^5 CFU/mL, strain GC 4552): 2 µg/mL (≈ 1.44 µM)
MIC Enterococcus faecalis (GC 4553) ([4]; inoculum 5×10^5 CFU/mL, strain GC 4553): 4 µg/mL (≈ 2.88 µM)
MIC Enterococcus faecalis (GC 4554) ([4]; inoculum 5×10^5 CFU/mL, strain GC 4554): 4 µg/mL (≈ 2.88 µM)
MIC Enterococcus faecium (GC 4556) ([4]; inoculum 5×10^5 CFU/mL, strain GC 4556): 4 µg/mL (≈ 2.88 µM)
MIC Enterococcus faecium (GC 4557) ([4]; inoculum 5×10^5 CFU/mL, strain GC 4557): 2 µg/mL (≈ 1.44 µM)
MIC Enterococcus avium (GC 4558) ([4]; inoculum 5×10^5 CFU/mL, strain GC 4558): 4 µg/mL (≈ 2.88 µM)
MIC Enterococcus faecalis (GC 6189) ([4]; inoculum 5×10^5 CFU/mL, strain GC 6189): 2 µg/mL (≈ 1.44 µM)
SMILES: N=C1NCC(C(O)C2NC(=O)C(Cc3ccc(OC4OC(CO)C(OC5OC6COC(Cc7ccccc7)OC6C(O)C5O)C(O)C4O)cc3)NC(=O)C(CC3CCCCC3)NC(=O)CNC(=O)C(CO)NC(=O)C(C(O)C3CNC(=N)N3C3OC(CO)C(O)C(O)C3O)NC2=O)N1 (stereo not shown) [Example 200]
MIC Staphylococcus haemolyticus (GC 4546) ([2]; strain GC 4546): 1 µg/mL (≈ 0.72 µM)
